# Reference: PMC10952535, “The differential binding and biological efficacy of auxin herbicides” (Pest Management Science, 2022)
# How the values were obtained:
# AtAFB2 [1] = biological target: T1, AtAFB2 (Arabidopsis thaliana, UniProt Q9LW29); assay: SPR relative binding (co-receptor complex formation with Aux/IAA7 degron), AtAFB2; settings: 50 μM compound, compared to IAA
# T1 construct: His10 (N, cleaved yes); eGFP (N, cleaved yes); FLAG (N, cleaved yes); made in house; host or cells: baculovirus; Trichoplusia ni Hi5 cells (virus generated in Sf9)
# T1 sequence (Q9LW29 whole entry, other chains not shown): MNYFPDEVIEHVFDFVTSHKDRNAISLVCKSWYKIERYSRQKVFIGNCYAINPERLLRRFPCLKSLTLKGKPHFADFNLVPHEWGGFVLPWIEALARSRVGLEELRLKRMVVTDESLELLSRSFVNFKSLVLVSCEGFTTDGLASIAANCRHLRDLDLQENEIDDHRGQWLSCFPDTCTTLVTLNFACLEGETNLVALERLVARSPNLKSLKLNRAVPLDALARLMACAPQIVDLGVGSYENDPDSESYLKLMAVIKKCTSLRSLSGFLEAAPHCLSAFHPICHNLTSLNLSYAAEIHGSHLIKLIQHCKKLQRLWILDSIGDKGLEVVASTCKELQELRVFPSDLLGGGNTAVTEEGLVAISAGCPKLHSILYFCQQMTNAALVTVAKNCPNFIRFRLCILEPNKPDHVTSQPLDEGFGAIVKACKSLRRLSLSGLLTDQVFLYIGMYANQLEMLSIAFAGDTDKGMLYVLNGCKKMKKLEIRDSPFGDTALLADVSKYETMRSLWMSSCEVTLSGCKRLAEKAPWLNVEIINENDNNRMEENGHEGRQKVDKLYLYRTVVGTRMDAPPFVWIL
# T1 sequence (Q39255 whole entry partner, other chains not shown): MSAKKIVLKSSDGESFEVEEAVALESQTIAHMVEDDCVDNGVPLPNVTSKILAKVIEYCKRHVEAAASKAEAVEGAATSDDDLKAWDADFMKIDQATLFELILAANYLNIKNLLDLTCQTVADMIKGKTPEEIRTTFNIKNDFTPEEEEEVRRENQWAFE
# Procedure: (§1) Auxin binding assays using surface plasmon resonance (SPR) were performed on a Biacore 2000 as described previously.[3], [18], [23] Protein was stored on ice and protein concentrations were assayed by A280 nm measurement (nanodrop, Thermo Scientific). Briefly, AtAux/IAA7 degron peptide was immobilized on streptavidin‐coated SPR chips, and binding was measured in the presence of IAA or auxin analogue by recruitment of the TIR1/AFB protein from solution as the co‐receptor complex formed on the chip. Kinetic analyses were performed by single cycle kinetics on a Biacore T200 (Cytiva Life Sciences), titrating compounds against a fixed concentration of TIR1 before injection. The degron peptide density on the chips was controlled so that R max < 300 Response UNits (RU).
# [2] = test system: Arabidopsis thaliana wild type (WT) Col‐0; assay: Foliar efficacy bioassay, wild type; type: in vivo; settings: foliar application; for GR50 (DW % of NT): dry weight at 14 DAT
# Procedure: (§2) Bioassays were carried out with the model species Arabidopsis thaliana. The wild type (WT) Col‐0 line was compared to an afb5‐1 mutant line in a Col‐0 background containing a missense mutation of R609K.[11] A. thaliana seeds were sown on Metro‐mix 360 potting mix (Sungro Horticulture) supplemented with vermiculite and stratified for 3 days at 4 °C in the dark. Flats were moved to a growth chamber (as above) and a plastic lid was placed on the flat. On germination, the lid was removed. After 2 weeks in the growth chamber, seedlings were transplanted into 3‐in. pots with Metro‐mix 360 potting mix and moved to a greenhouse. The greenhouse was maintained at a day/night temperature of 23/22 °C and supplemented with light to complete a 16 h photoperiod. Plants were allowed to recover from transplanting for 1 week prior to applications. A. thaliana seedlings were sprayed with test compounds at five rates with four replications. Tests included nontreated and solvent check controls. Individual compound doses varied and were based on plate test data or anecdotal potency. Compounds were formulated as technical material and were initially dissolved in 1 part 97:3 (v/v) acetone: dimethylsufoxide (DMSO) followed by 5 parts 1.5% (v/v) Agridex crop oil concentrate in distilled water to give a final concentration of 1.25% (v/v) Agridex. Formulated compounds were sprayed at a volume of 187 L ha^−1 at a spray height of 43 cm above the plants with an overhead Mandel track sprayer set with 8002 E Tee jet nozzle. Plants were treated at rosette stage just prior to or at initiation of bolting. After spray application, plants were allowed to dry then moved back to the greenhouse. Plants were grown in the greenhouse (same conditions as above) for 2 weeks until harvest. Visual injury/growth reduction observations were made at 7 and 14 days after treatment (DAT) and scored where 0% = no growth reduction and 100% = complete growth reduction or plant death. At 14 DAT the plants were harvested and dried to collect dry weight (DW) biomass.
# (§3) The data collected in the foliar application of compounds generated a measure of sensitivity or dose response. The data was analyzed by regression in JMP 10.0 and fit to a nonlinear exponential three parameter fit model:
# (§4) where a is the asymptote, b is the scale and c is the rate of growth. The model was used to determine the herbicidal dose that caused 50% reduction in growth (GR50). GR50 values were compared between mutant and WT to give an indication of fold resistance over WT (Table 3). A log‐logistic model[24] was also used to fit the data and gave similar GR50 values with greater standard errors without changing the pattern of responsiveness.
# [3] = test system: Arabidopsis thaliana afb5‐1 mutant line; type: in vivo; settings: for GR50 (DW % of NT) / GR50 (visual injury): afb5‐1, foliar application; for GR50 (DW % of NT): dry weight at 14 DAT; for Resistance ratio (afb5‐1 vs WT), DW: ratio of dry weight GR50 values; for Resistance ratio (afb5‐1 vs WT), DW / Resistance ratio (afb5‐1 vs WT), visual injury: foliar application; for Resistance ratio (afb5‐1 vs WT), visual injury: ratio of visual injury GR50 values
# Procedure: as §2, §3, §4
# AtAFB5 [4] = biological target: T2, AtAFB5 (Arabidopsis thaliana, UniProt Q9LTX2); assay: SPR relative binding (co-receptor complex formation with Aux/IAA7 degron), AtAFB5; settings: 50 μM compound, compared to IAA
# T2 construct: His10 (N, cleaved yes); eGFP (N, cleaved yes); FLAG (N, cleaved yes); made in house; host or cells: baculovirus; Trichoplusia ni Hi5 cells (virus generated in Sf9)
# T2 sequence (Q9LTX2 whole entry, other chains not shown): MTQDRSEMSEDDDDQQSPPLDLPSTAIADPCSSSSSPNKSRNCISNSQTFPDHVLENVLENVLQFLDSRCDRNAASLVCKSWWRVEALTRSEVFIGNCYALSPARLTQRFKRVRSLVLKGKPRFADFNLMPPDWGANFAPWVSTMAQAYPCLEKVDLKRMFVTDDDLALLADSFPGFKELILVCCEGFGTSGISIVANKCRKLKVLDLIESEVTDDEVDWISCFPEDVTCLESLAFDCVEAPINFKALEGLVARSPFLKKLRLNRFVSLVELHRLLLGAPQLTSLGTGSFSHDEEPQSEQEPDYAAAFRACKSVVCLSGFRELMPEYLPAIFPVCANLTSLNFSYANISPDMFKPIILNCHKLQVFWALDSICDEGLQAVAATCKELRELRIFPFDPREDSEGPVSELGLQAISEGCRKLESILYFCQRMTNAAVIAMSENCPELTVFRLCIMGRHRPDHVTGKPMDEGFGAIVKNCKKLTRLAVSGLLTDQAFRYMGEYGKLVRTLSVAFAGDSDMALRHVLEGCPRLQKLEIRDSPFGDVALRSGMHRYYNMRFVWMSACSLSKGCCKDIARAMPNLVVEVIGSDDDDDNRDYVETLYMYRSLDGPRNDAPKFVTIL
# T2 sequence (Q39255 whole entry partner, other chains not shown): as the sequence (Q39255 whole entry partner, other chains not shown) above
# Procedure: as §1
# AtTIR1 [5] = biological target: T3, AtTIR1 (Arabidopsis thaliana, UniProt Q570C0); assay: SPR relative binding (co-receptor complex formation with Aux/IAA7 degron), AtTIR1; settings: 50 μM compound, compared to IAA
# T3 construct: His10 (N, cleaved yes); eGFP (N, cleaved yes); FLAG (N, cleaved yes); made in house; host or cells: baculovirus; Trichoplusia ni Hi5 cells (virus generated in Sf9)
# T3 sequence (Q570C0 whole entry, other chains not shown): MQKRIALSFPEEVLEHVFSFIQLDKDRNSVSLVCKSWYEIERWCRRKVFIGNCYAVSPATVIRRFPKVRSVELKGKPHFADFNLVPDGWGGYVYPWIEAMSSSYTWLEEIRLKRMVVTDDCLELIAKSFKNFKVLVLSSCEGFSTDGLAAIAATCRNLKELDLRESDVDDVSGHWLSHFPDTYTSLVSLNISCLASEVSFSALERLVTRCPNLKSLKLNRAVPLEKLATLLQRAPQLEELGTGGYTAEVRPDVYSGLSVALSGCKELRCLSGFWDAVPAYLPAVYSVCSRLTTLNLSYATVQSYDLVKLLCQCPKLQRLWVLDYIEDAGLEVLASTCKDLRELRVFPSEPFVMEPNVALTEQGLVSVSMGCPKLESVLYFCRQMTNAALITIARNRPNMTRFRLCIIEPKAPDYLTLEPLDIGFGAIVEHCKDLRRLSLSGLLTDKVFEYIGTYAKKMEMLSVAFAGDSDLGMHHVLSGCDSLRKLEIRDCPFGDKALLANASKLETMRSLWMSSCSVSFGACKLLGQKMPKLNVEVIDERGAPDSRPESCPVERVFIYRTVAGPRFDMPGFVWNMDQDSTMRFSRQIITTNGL
# T3 sequence (Q39255 whole entry partner, other chains not shown): as the sequence (Q39255 whole entry partner, other chains not shown) above
# Procedure: as §1
# [6] = test system: Arabidopsis thaliana afb5‐1 seedlings; assay: Root growth inhibition bioassay, afb5‐1 mutant; type: in vivo; settings: afb5‐1 vs WT dose-response, 8 days
# Procedure: A. thaliana seed was surface sterilized in 10 mL of 50% bleach and two drops of Tween‐20 for 12 min and rinsed six times with sterile water. Sterile growth media consisted of half‐strength Murashige and Skoog salts supplemented with 0.4% agar and 0.8% sucrose. In a laminar flow hood, 8 mL of liquid media was transferred to sterile test‐tubes placed in a heat block to maintain media in a liquid state. Compounds were previously diluted in 50/50 DMSO/water to a known molar concentration. A 50‐μL aliquot of diluted compound was added to each tube to give a specified final concentration, normally 10, 1, 0.1, 0.01 or 0.001 μM. A single tube was treated with solvent only as a control. Test compounds were mixed into the media by pipetting up and down three times, then 6 mL of media with test compound was added to one well in a six‐well plate, working from low‐to‐high concentration, and allowed to solidify in the laminar flow hood. Approximately 15 sterilized seeds were placed on the solidified surface and the remaining 2 mL of liquid media was added to cover and disperse seeds. Plates were sealed with paraffin and moved to a Conviron growth chamber set to 60% humidity, 25 °C and light intensity 100 μE m^2 s^−1 with a 16 h photoperiod. After 8 days primary root measurements of five random plants were taken by removing plants from media and measuring with a ruler. Treatments were compared against the solvent control to determine percentage root growth inhibition. Each experiment was run twice and averages were combined for analysis.
# AtAFB2 [7] = biological target: T1, AtAFB2; assay: SPR single cycle kinetics, AtAFB2; type: binding; settings: averaged equilibrium dissociation constant, SPR single cycle kinetics; read-out: Ave KD
# Procedure: as §1
# AtAFB5 [8] = biological target: T2, AtAFB5; assay: biochemical; type: binding; settings: averaged equilibrium dissociation constant, SPR single cycle kinetics; read-out: Ave KD
# Procedure: as §1
# AtTIR1 [9] = biological target: T3, AtTIR1; assay: biochemical; type: binding; settings: for Kd: averaged equilibrium dissociation constant, SPR single cycle kinetics, read-out: Ave KD
# Procedure: as §1
SMILES,Relative binding (in words) (AtAFB2 [1]),GR50 (DW % of NT) [2] [g ai ha^−1],GR50 (visual injury) [2] [g ai ha^−1],GR50 (DW % of NT) [3] [g ai ha^−1],GR50 (visual injury) [3] [g ai ha^−1],"Resistance ratio (afb5‐1 vs WT), DW [3]","Resistance ratio (afb5‐1 vs WT), visual injury [3]",Relative binding (in words) (AtAFB5 [4]),Relative binding (in words) (AtTIR1 [5]),Resistance of afb5‐1 in root growth inhibition (in words) [6],Kd (AtAFB2 [7]) [µM],Kd (AtAFB5 [8]) [µM],Kd (AtTIR1 [9]) [µM],"Fold higher affinity for TIR1 (AtTIR1 [9]; from KD values, TIR1 versus other receptors) [fold]"
O=C(O)COc1nc(Cl)c(Cl)cc1Cl [Triclopyr],lower binding than IAA,4.7,31.8,18.4,41.8,3.9,1.3,lower binding than IAA,lower binding than IAA,–,–,–,–,–
Cc1cc(Cl)ccc1OC(C)C(=O)O (stereo not drawn) [mecoprop],lower binding,–,–,–,–,–,–,lower binding,lower binding,–,–,–,–,–
COc1c(Cl)ccc(Cl)c1C(=O)O [Dicamba],low binding,16.5,169,60.8,290,3.7,1.7,low binding,low binding,No resistance,–,–,–,–
O=C(O)c1nc(Cl)ccc1Cl [Clopyralid],relatively low binding,497,2698,3999,4259,–,1.6,relatively low binding,relatively low binding,considerable resistance,–,–,–,–
Nc1c(Cl)c(F)nc(OCC(=O)O)c1Cl [Fluroxypyr],lower binding than IAA,35.7,234,84.1,310,2.4,1.3,lower binding than IAA,lower binding than IAA,–,45,95,18,–
CC(Oc1ccc(Cl)cc1Cl)C(=O)O (stereo not drawn) [dichlorprop],lower binding,–,–,–,–,–,–,lower binding,lower binding,–,–,–,–,–
"O=C(O)Cc1cccc2ccccc12 [1‐NAA, 1‐napthaleneacetic acid]",–,–,–,–,–,–,–,–,–,No resistance,–,–,–,–
Nc1cc(Cl)nc(C(=O)O)c1Cl [Aminopyralid],relatively low binding,3.4,40.1,68.7,–,20.2,–,relatively low binding,relatively low binding,considerable resistance,–,–,–,–
Nc1c(F)c(-c2ccc(Cl)cc2)nc(C(=O)O)c1Cl [DAS534],–,–,0.4,1.2,4.3,–,10.8,strong bias for binding to AtAFB5,–,–,–,–,–,–
COc1c(Cl)ccc(-c2nc(C(=O)O)c(Cl)c(N)c2F)c1F [Florpyrauxifen],–,0.1,0.7,1,5.2,10,7.4,–,–,considerable resistance,105,2.7,62,–
"O=C(O)Cc1c[nH]c2ccccc12 [IAA, indole‐3‐acetic acid]",–,–,–,–,–,–,–,–,–,–,12.6,33,7.9,4
"Cc1cc(Cl)ccc1OCC(=O)O [MCPA, 2‐methyl‐4‐chlorophenoxyacetic acid]",lower binding,–,–,–,–,–,–,lower binding,lower binding,–,–,–,–,–
Nc1nc(C2CC2)nc(C(=O)O)c1Cl [Aminocyclopyrachlor],–,4.4,7,8.3,36.8,1.9,5.3,–,–,considerable resistance,–,–,–,–
